“Also recorded” adds a separate entry of the source. Like-named read-outs stand apart in the source and are kept apart here. No end group written: not given here. *: point of attachment. 6‑(9-acridinylamino)hexanoyl = O=C(CCCCCNc1c2ccccc2nc2ccccc12)*; Acr = acridine on the lysine ε-amine; PEG = not defined here
What was measured:
[1] = test system: Erythrocytes; experiment: RBC hemolysis assay; assay type: cell-based, mice; conditions: for hemolytic activity when combined with pGL3: pH 7.4, peptide DNA polyplex 1.5 nmols and 7.5 μg pGL3
Procedure: Whole blood was obtained from male ICR mice by heart puncture with heparinized 22 G needles and collected in conical tubes containing 10 ml of 0.15 M PBS (pH 7.4) prewarmed to 37° C. Erythrocytes were immediately separated from plasma by centrifugation at 2000 rpm for 2 min, washed three times with 10 ml of PBS, and then diluted to 1.5×10^8 cells/ml. Peptides were prepared at 15 μM and serially diluted to 10-0.01 μM, after which 100 μl was pipetted in triplicate into a MultiScreenHTS BV 96 well plate. Erythrocytes (50 μl, 7.5×10^6 cells) were added to the peptides and incubated at 37° C. for 1 h followed by filtration on a Multiscreen vacuum manifold (Millipore Corporation, Billerica, Mass.). The filtrate was measured for Abs410nm on a Biotech plate reader (Biotech Instruments Incorporated., Winooski, Vt.) and compared to the 100% hemolysis caused by replacing PBS with water. Peptide DNA polyplexes (1.5 nmols and 7.5 μg pGL3) were also assayed for hemolysis as described above.

[2] = test system: pGL3; experiment: thiazole orange fluorophore exclusion assay of polyacridine-melittin peptides; assay type: binding; conditions: pGL3, 0.1 μM thiazole orange
Procedure: The relative binding affinity of peptides for DNA was determined by a fluorophore exclusion assay (Rich, D. H., Gesellchen, P. D., Tong, A., Cheung, A., and Buckner, C. K. (1975) Alkylating derivatives of amino acids and peptides. Synthesis of N-maleoylamino acids, [1-(N-maleoylglycyl)cysteinyl]oxytocin, and [1-(N-maleoyl-11-aminoundecanoyl)cysteinyl]oxytocin. Effects on vasopressin-stimulated water loss from isolated toad bladder. J. Med. Chem. 18, 1004-1010). pGL3 (200 μl of 4 μg/ml in 5 mM Hepes pH 7.5 containing 0.1 μM thiazole orange) was combined with 0, 0.05, 0.1, 0.25, 0.35, 0.5, 1, and 2 nmols of peptide in 300 μl of Hepes and allowed to bind at RT for 30 min. Thiazole orange fluorescence was measured using an LS50B fluorometer (Perkin-Elmer, U.K.) by exciting at 498 nm while monitoring emission at 546 nm with the slit widths set at 10 nm. A fluorescence blank of thiazole orange in the absence of DNA was subtracted from all values before data analysis. The data is presented as nmol of peptide per μg of DNA versus the percent fluorescence intensity±the standard deviation determined by three independent measurements.

[3] = test system: pGL3; experiment: gel band shift assay of acridine PEGs and polyacridine PEG-peptides; assay type: binding; conditions: constant stoichiometry of 1 nmol per μg of DNA
Procedure: The samples were loaded onto a 1% agarose gel (50 ml) and electrophoresed in TAE buffer at 80 V for 90 min. […] The samples were applied to a 1% agarose gel and electrophoresed as described above.

[4] = particle size and zeta potential of polyacridine PEG-peptide DNA open polyplexes; assay type: physicochemical; conditions: for apparent particle diameter: QELS, 0.2 nmols per μg of DNA or higher
Procedure: Polyacridine PEG-peptide DNA polyplexes were formed by combining 10 μg of pGL3 (in 500 μl of 5 mM Hepes pH 7.4) with an equal volume containing either 1, 2, 4, 8, 12, 16, or 20 nmol of polyacridine PEG-peptide while vortexing. The polyplexes were equilibrated at RT for 30 min prior to analysis of particle size (QELS) and zeta potential using a Brookhaven ZetaPlus (Brookhaven Instruments, Holtsville, N.Y.). The particle size diameter and zeta potential are reported as the mean and standard deviation of ten measurements.

[5] = test system: gastrocnemius muscle of ICR male mice; experiment: intramuscle-electroporation dosing and bioluminescence imaging; assay type: in vivo; conditions: IM-EP
Procedure: Male ICR mice (Harlan), weighing 25-30 g were prepared for IM-EP dosing by anesthetization with an intraperitoneal dose of 200 μl of ketamine/xylazine (20 mg/ml and 2 mg/ml, respectively). The hamstring muscles were sheared and swabbed with 70% ethanol prior to administering a 50 μl dose over 10 sec in normal saline to both gastrocnemius muscles in 2 mice by a 1 ml monoject syringe (1 cc, 28 G×½). After dosing the BTX 2-Needle Array Electrode was inserted into the skin with the electrodes straddling the dosing site. Successive electronic stimulation was generated by the EMC BTX 830, Square-wave Pulse Generator (BTX, Harvard Apparatus) as the power source. At 1 min post-administration of the DNA dose, the pulse generator delivered six successive 100 V pulses over 20 msec with a 100 msec interval between pulses (31).
Luciferase reporter gene expression was quantified by bioluminescence imaging (BLI) at 2-14 days following IM-EP using an IVIS Imaging System 200 Series (Xenogen) (Wu, J. C., Sundaresan, G., Iyer, M., and Gambhir, S. S. (2001) Noninvasive optical imaging of firefly luciferase reporter gene expression in skeletal muscles of living mice. Molecular Therapy: the Journal of the American Society of Gene Therapy 4, 297-306). Mice were anesthetized by isofluorane (2% flow with oxygen) and dosed intramuscularly with 40 μL of 30 mg per ml D-Luciferin (GoldBio). Bioluminescent images were acquired 5 min post substrate administration and acquired for 1 min with a 24.6 cm field of view. The resultant grayscale images with a colormap overlay were analyzed using the Igor Pro 4.09 software (Livinglmage). Luciferase expression is reported as photons/sec/cm^2/steradian within a uniformly defined region of interest.

[6] = test system: liver; experiment: hydrodynamic stimulation and bioluminescence imaging of luciferase expression; assay type: in vivo, mice; conditions: tail vein 1 μg pGL3 in complex with 0.5 nmol peptide; HD stimulation 30 min after DNA
Procedure: pGL3 (1 μg) was prepared in a volume of normal saline corresponding to 9 wt/vol % of the mouse's body weight (1.8-2.25 ml based on 20-25 g mice). The DNA dose was administered by tail vein to 4-5 mice in 5 sec according to a published procedure (Liu F, Song Y, Liu D. Hydrodynamics-based transfection in animals by systemic administration of plasmid DNA. Gene Ther 1999; 6: 1258-1266; Zhang G, Budker V, Wolff J A. High levels of foreign gene expression in hepatocytes after tail vein injections of naked plasmid DNA. Human Gene Therapy 1999; 10: 1735-1737). Mice (4-5) were also dosed tail vein with 1 μg of PEGylated polyacridine polyplex in 50 μl of HBM (5 mM Hepes, 0.27 M mannitol, pH 7.4). At times ranging from 5-120 min, a stimulatory hydrodynamic dose of normal saline (9 wt/vol % of the body weight) was administered over 5 sec. At 24 hrs post-DNA dose, mice were anesthetized by 3% isofluorane, then administered an i.p. dose of 80 μl (2.4 mg) of D-luciferin (30 μg/μl in phosphate-buffered saline). At 5 min following the D-luciferin dose, mice were imaged for bioluminescence (BLI) on an IVIS Imaging 200 Series (Xenogen). BLI was performed in a light-tight chamber on a temperature-controlled, adjustable stage while isofluorane was administered by a gas manifold at a flow rate of 3%. Images were acquired at a ‘medium’ binning level and a 20 cm field of view. Acquisition times were varied (1 sec^−1 min) depending on the intensity of the luminescence. The Xenogen system reported bioluminescence as photons/sec/cm^2/seradian in a 2.86 cm diameter region of interest covering the liver. The integration area was transformed to pmols of luciferase in the liver using a previously reported standard curve (Rettig G et al. Quantitative Bioluminscence Imaging of Transgene Expression In Vivo. Analytical Biochemistry 2006; 335: 90-94). The results were determined to be statistically significant (p≦0.05) based on a two-tailed unpaired t-test.

[7] = RBC hemolysis at pH 5.0, second value of the cell (pH 7.4:5.0), read-out: HL50 (μM) pH 5.0
[8] = RBC hemolysis at pH 7.4, first value of the cell (pH 7.4:5.0), read-out: HL50 (μM) pH 7.4

| Compound | EC50 [1, 7] [µM] | EC50 [1, 8] [µM] | hemolytic activity when combined with pGL3 [1] | DNA band shift on agarose gel [3] | further results |
| --- | --- | --- | --- | --- | --- |
| CC[C@H](C)[C@H](NC(=O)CN)C(=O)NCC(=O)N[C@@H](C)C(=O)N[C@H](C(=O)N[C@@H](CC(C)C)C(=O)N[C@@H](CCCCN)C(=O)N[C@H](C(=O)N[C@@H](CC(C)C)C(=O)N[C@H](C(=O)N[C@H](C(=O)NCC(=O)N[C@@H](CC(C)C)C(=O)N1CCC[C@H]1C(=O)N[C@@H](C)C(=O)N[C@@H](CC(C)C)C(=O)N[C@H](C(=O)N[C@@H](CO)C(=O)N[C@@H](Cc1c[nH]c2ccccc12)C(=O)N[C@H](C(=O)N[C@@H](CCCCN)C(=O)N[C@@H](CCCNC(=N)N)C(=O)N[C@@H](CCCCN)C(=O)N[C@@H](CCCNC(=N)N)C(=O)N[C@@H](CCC(N)=O)C(=O)N[C@@H](CCC(N)=O)C(N)=O)[C@@H](C)CC)[C@@H](C)CC)[C@@H](C)O)[C@@H](C)O)C(C)C)C(C)C [Melittin, reference compound] | 2.3 | 0.9 | nearly unchanged | – | – |
| (CWKKGIGAVLKVLTTGLPALISLIKRKRQQ)2 [Dimeric-melittin] | 1.2 | 1 | – | – | – |
| (m)GWKKGIGAVLKVLTTGLPALISLIKRKRQQ [Mal-melittin] | 4.8 | 3.84 | maintained their hemolytic activity | – | – |
| CWKKGIGAVLKVLTTGLPALISLIKRKRQQ [Cys-melittin] | 0.7 | 1 | maintained their hemolytic activity; also recorded: nearly unchanged | – | thiazole orange displacement, asymptote / equivalence point of fluorescence intensity [2]: approximately 0.5 nmols of peptide per μg of DNA |
| Lys(Acr)-Arg-Lys(Acr)-Arg-Lys(Acr)-Arg-Lys(Acr)-Arg-Cys (K(Acr)RK(Acr)RK(Acr)RK(Acr)RC) [poly(Acr-Arg)4-Cys] | > 10 | > 10 | – | – | thiazole orange displacement, asymptote / equivalence point of fluorescence intensity [2]: approximately 0.4 nmols of peptide per μg of DNA; thiazole orange displacement, asymptote / equivalence point of fluorescence intensity ([2]; listed as (Acr-Arg)4-Cys): 0.35 nmols of peptide per μg of DNA |
| PEG-Cys-Trp-(Lys(Acr))3: PEG5000 Da-maleimide on Cys of Cys-Trp-Lys3, Lys ε-amines conjugated with 6-(9-acridinylamino) hexanoic acid; SEQ ID NO: 3 (C(PEG 5000 Da maleimide)WK(6‑(9-acridinylamino)hexanoyl)K(6‑(9-acridinylamino)hexanoyl)K(6‑(9-acridinylamino)hexanoyl)) | – | – | – | further retarded DNA migration | apparent particle diameter [4]: approximately 200 nm; apparent particle diameter ([4]; listed as PEG-Cys-(Lys(Acr))3): 200 nm; zeta potential over titration ([4]; titrating with 0.1 to 2 nmol per μg of DNA): −15 to −5 mV |
| PEG-Cys-Trp-(Lys(Acr))4: PEG5000 Da-maleimide on Cys of Cys-Trp-Lys4, Lys ε-amines conjugated with 6-(9-acridinylamino) hexanoic acid; SEQ ID NO: 4 (C(PEG 5000 Da maleimide)WK(6‑(9-acridinylamino)hexanoyl)K(6‑(9-acridinylamino)hexanoyl)K(6‑(9-acridinylamino)hexanoyl)K(6‑(9-acridinylamino)hexanoyl)) | – | – | – | further retarded DNA migration | – |
| PEG-Cys-Trp-(Lys(Acr))5: PEG5000 Da-maleimide on Cys of Cys-Trp-Lys5, Lys ε-amines conjugated with 6-(9-acridinylamino) hexanoic acid; SEQ ID NO: 5 (C(PEG 5000 Da maleimide)WK(6‑(9-acridinylamino)hexanoyl)K(6‑(9-acridinylamino)hexanoyl)K(6‑(9-acridinylamino)hexanoyl)K(6‑(9-acridinylamino)hexanoyl)K(6‑(9-acridinylamino)hexanoyl)) | – | – | – | complete retardation of DNA migration | zeta potential asymptote ([4]; at 1 nmol per μg of DNA): −5 mV; luciferase expression at day 2, fold decrease versus pGL3 ([5]; formulation 0.2 nmol per μg of DNA, 1 μg pGL3, mice): 100 fold; luciferase expression at day 2 compared with pGL3 ([5]; open polyplex 2 nmol per μg of DNA, 1 μg pGL3, mice): identical expression levels; luciferase expression at day 2, fold lower than pGL3 ([5]; open polyplex 4 nmol per μg of DNA, 1 μg pGL3, mice): approximately 10 fold; loss in expression across the 14 day sampling period ([5]; open polyplexes 4 nmol per μg of DNA, mice): 2-3 fold; decrease of expression over 14 days ([5]; open polyplexes 0.2 and 2 nmol per μg of DNA, mice): 10 fold |
| PEG-Cys-Trp-(Lys)5: PEGylated Cys-Trp-Lys5 without acridine, SEQ ID NO: 19 (C(PEG)WKKKKK; reading uncertain; also: PEG5000 Da maleimide on Cys, printed as PEG-Cys-Trp-(Lys)5) | – | – | – | unable to cause a band DNA shift | – |
| PEGylated-SS-(Acr-Arg)4: (Acr-Arg)4-Cys with Cys thiol reacted with 5 kDa PEG-OPSS, reducible disulfide linkage | – | – | – | – | BLI luciferase expression in liver at 24 hr [6]: approximately 10^7 photons/sec/cm^2/sr |
